# Laboratory results: patent US20120165319A1, “INHIBITORS OF INTERLEUKIN-1 BETA CONVERTING ENZYME” (VERTEX PHARMACEUTICALS INCORPORATED, priority 1995, published 2012)
# How the values were obtained:
# ICE = biological target: T1, ICE (Homo sapiens, UniProt P29466); experiment: Enzyme assay with UV-visible substrate (visible ICE assay, Succinyl-Tyr-Val-Ala-Asp-pNitroanilide); format: biochemical; settings: Table 5
# T1 sequence (P29466 120-297 limits assumed): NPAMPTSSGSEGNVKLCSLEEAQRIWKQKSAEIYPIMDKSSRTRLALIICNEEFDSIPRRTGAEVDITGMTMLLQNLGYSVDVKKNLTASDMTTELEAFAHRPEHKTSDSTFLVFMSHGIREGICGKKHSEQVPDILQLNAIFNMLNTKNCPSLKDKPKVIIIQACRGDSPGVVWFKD
# T1 sequence (P29466 317-404 limits assumed): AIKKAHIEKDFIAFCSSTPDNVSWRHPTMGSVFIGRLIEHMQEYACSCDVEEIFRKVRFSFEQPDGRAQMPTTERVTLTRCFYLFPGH
# Outline: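 ICE preincubated with inhibitor in DMSO for 15 min at room temperature, then Suc-Tyr-Val-Ala-Asp-pNA added. pNA release read at 405-603 nm for 20 min at 37 °C, rate from linear fit in mOD/min. Ki and inhibition mode from fits of rates at varying inhibitor concentrations to standard kinetic equations.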
# [1] = Measurement of blood levels of prodrugs of 214e after p.o. dosing in mice; format: in vivo, mouse; settings: p.o. 50 mg/kg in 0.5% carboxymethylcellulose, blood at 1 and 7 hours
# Method: Measurement of Blood Levels of Prodrugs of 214e
# Mice were administered a p.o. dose of compounds 302 and 304a (50 mg/kg) prepared in 0.5% carboxymethylcellulose. Blood samples were collected at 1 and 7 hours after dosing. Serum was extracted by precipitation with an equal volume of acetonitrile containing 2% formic acid followed by centrifugation. The supernatant was analyzed by liquid chromatography-mass spectrometry (ESI-MS) with a detection level of 0.03 to 3 μg/ml.
# [2] = tested on: IL-1β production, LPS-challenged mice; experiment: In vivo acute assay for efficacy as anti-inflammatory agent: LPS-induced IL-1β production in mice; set-up: species or system mouse; settings: LPS challenged mice, PO, 50 mg/kg; * = values obtained in subsequent assays (Table 4)
# Outline: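 Serum IL-1β was measured by ELISA 7 h after an IP dose of 20 mg/kg LPS in CD1 mice, n=6 per group. Compounds in olive oil/DMSO/ethanol 90:5:5 were injected IP 1 h post-LPS (some analogs were dosed at challenge), and separate groups received 50 mg/kg by oral gavage.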
# [3] = tested on: IL-1β, human peripheral blood mononuclear cells (PBMC); experiment: PBMC cell assay: IL-1β assay with human PBMC or enriched adherent mononuclear cells, LPS-stimulated; format: cell-based; settings: Homo sapiens, PBMC, * = values obtained upon reassay
# Outline: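 Mature IL-1β is measured by ELISA in supernatants after 16–18 hr at 37 °C, 5% CO2, with LPS (5 ng/ml final) and test compound (0.1% DMSO final). Cells are human PBMC (6×10^6 cells/ml) or plate-adherent mononuclear cells (2.5−3.0×10^5 per well), and the 5–6 compound concentrations span the ICE Ki.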
# IL-1β, human PBMC = experiment: Human PBMC assay (Example 27): IL-1β production; format: cell-based; settings: LPS-stimulated human PBMCs (FIG. 5); read-out: IC50, decrease of IL-1β production
# Method: (§1) Since the processing and secretion of biologically active IGIF is mediated by ICE, we compared the activity of a reversible ICE inhibitor (Ac-YVAD-CHO) on IL-1β and IFN-γ production in a peripheral blood mononuclear cell (PBMC) assay (Examples 27).
# (§2) Human buffy coat cells were obtained from blood donors and peripheral blood mononuclear cells (PBMC) were isolated by centrifugation in LeukoPrep tubes (Becton-Dickinson, Lincoln Park, N.J.). PBMC were added (3×10^6/well) to 24 well Corning tissue culture plates and after 1 hr incubation at 37° C., non-adherent cells were removed by gently washing. Adherent mononuclear cells were stimulated with LPS (1 μg/ml) with or without ICE inhibitor in 2 ml RPMI-1640-10% FBS. After 16-18 hr incubation at 37° C., IGIF and IFN-γ were quantitated in culture supernatants by ELISA.
# IFN-γ, human PBMC = experiment: Human PBMC assay (Example 27): IFN-γ production; format: cell-based; settings: LPS-stimulated human PBMCs (FIG. 5); read-out: IC50, decrease of IFN-γ production
# Method: as §1, §2
Molecule,Ki (ICE) [µM],blood levels when administered orally (in words) [1],"Inhibition of IL-1β Production, compound administered 0 hr relative to LPS challenge [2] [%]","Inhibition of IL-1β Production, compound administered +1 hr relative to LPS challenge [2] [%]","Inhibition of IL-1β Production, compound administered −1 hr relative to LPS challenge [2] [%]","Inhibition of IL-1β Production, compound administered −2 hr relative to LPS challenge [2] [%]",IC50 [3] [µM],"IC50 (IL-1β, human PBMC) [µM]","IC50 (IFN-γ, human PBMC) [µM]"
"COC1OC(=O)C[C@@H]1NC(=O)[C@@H]1CCCN2C(=O)CC[C@H](NC(=O)c3ccccc3)C(=O)N12 (stereo partly drawn) [Compound 304a, [1S,9S (2RS,3S)]9-Benzoylamino-6,10-dioxo-1,2,3,4,7,8,9,10-octahydro-N-(2-methoxy-5-oxo-tetrahydro-furan-3-yl)-6H-pyridazino[1,2-a][1,2]diazapine-1-carboxamide]",0.2,detectable blood levels,68,37,33,30,1.4,–,–
"AcYVAD-CHO [Ac-YVAD-CHO, reference compound]",–,–,–,–,–,–,–,2.5,2.5
